Measured values reported in patent US20220202696A1, “AGENT FOR PROMOTING COLLAGEN PRODUCTION, MEDICAMENT, COSMETIC, AND METHOD FOR MANUFACTURING AGENT FOR PROMOTING COLLAGEN PRODUCTION” (Murata Manufacturing Co., Ltd., priority 2019, published 2022).

Tested on: Normal human dermal fibroblasts
Test: Type I collagen production in aging induction-treated fibroblasts (ELISA)
Assay type: cell-based
Conditions: positive control at 25 μmol/L, 48 hours culture, aging induction-treated cells, ELISA of medium
Method: Normal human dermal fibroblasts were maintained using a DMEM medium (+5% FBS) in a culture vessel to confluence. […] After this procedure was repeated once daily for 4 days, the cells were further cultured in DMEM (10% FBS) for 3 days, and the cultured cells were obtained and used as aging induction-treated cells. The aging induction of the cells was confirmed by senescence-associated beta-galactosidase (SA-β-Gal, an aging marker) staining. The aging induction-treated cells were seeded in 48-well plate at a cell density of 5.0×10^4 cells/well using a DMEM medium (+5% FBS). […] Then, the cells were cultured for 48 hours, thereafter the medium was collected, and the amount of type I collagen in the medium was quantified by an ELISA method (direct ELISA using an anti-Human Collagen Type I antibody (Rabbit)).

In the case of O=C1O[C@H]([C@@H](O)CO)C(O)=C1O [vitamin C], the “production of type I collagen” value is reported as “increased”.
